According to US6900181B2, “Pharmaceutical composition” (Renovo Limited, priority 1995, dated 2005):

Experiments:
[1] = system: linear full thickness incisions on the dorsal skin; assay: Rat full thickness incisional wound healing and scarring model, intradermal injection to the wound margins; assay type: in vivo, Sprague Dawley rats; settings: for effect on wound healing (histological analysis): 10, 20, 40 mM at wounding and daily for following seven days, compared with PBS controls; for immunocytochemical analysis (fibronectin staining, monocyte/macrophage profiles): vs PBS controls; for histological analysis: 40 days post wounding; for scarring / dermal architecture (histology): 80 days post wounding
Description: Adult male Sprague Dawley rats (200-250 g) were anaesthetised using equal parts halothane, nitrous oxide and oxygen. Four linear full thickness incisions, 1 cm in length to the depth of the panniculus carnosus were made on the dorsal skin, 1 cm from the midline and 5 and 8 cm from the base of the skull. The wounds were left unsutured to heal by secondary intention. Experimental treatments were administered by intradermal injection to the wound margins (50 μl down each wound margin). At selected time points animals were killed by chloroform overdose. Wounds were excised from the surrounding tissue and bisected. Half the wounds were rapidly frozen in OCT for cryosection and immunoctyochemistry and half fixed in formaldehyde for wax embedding and histology. Wax sections were routinely stained with haematoxylin and eosin, picrosirius red and Massons Lille trichrome, to display collagen fibre thickness, density and orientation to enable assessment of scar quality. […] A range of doses (10 mM, 20 mM and 40 mM) was studied for each sugar, with PBS (phosphate buffered saline) as a control. Treatments were administered at the time of wounding and each day for the following seven days. Two animals per dose were studied at each of the three time points (7, 40 and 80 days post wounding) for each compound. […]. […] Treatments were administered at the time of wounding and each day for the following two days. One animal per dose was studied at each of the two time points (7 and 80 days post wounding). Total n=4. […] Department of Pharmacy, University of Manchester. A single concentration (20 mM) of this compound was studied, with PBS as a control. The time of administration varied to the previous experiments. Animals were split into three groups and treated on day 0 alone, days 0, 2 and 4, or days 0 to 7 inclusive. Two animals per treatment regime were studied at each of the three time points (3, 7 and 80 days) Total n=18.

wounds = assay: Experimental work treating wounds with other sugars; assay type: in vivo; settings: for effect on wound healing: compared with controls; for effect on scarring: in vivo
Text: Galactose-6-phosphate and glycerol-3-phosphate have no effect upon either wound healing or scarring.

[2] = molecular target: M6P/IGF II (insulin-like growth factor II) receptor (Homo sapiens, UniProt P11717); assay: ELISA-type assay using purified M6P/IGF II receptor; assay type: binding; settings: initial results; compared with M6P
Text: In addition to the animal studies an ELISA-type assay using purified M6P/IGF II (insulin-like growth factor II) receptor was developed to determine if these analogues of M6P bind to the M6P/IGF II receptor.

[3] = 7 days post wounding, 10, 20, 40 mM
[4] = 10, 20, 40 mM, F1P effect particularly at 40 mM

Chain of M6P/IGF II (insulin-like growth factor II) receptor (P11717 41-2491): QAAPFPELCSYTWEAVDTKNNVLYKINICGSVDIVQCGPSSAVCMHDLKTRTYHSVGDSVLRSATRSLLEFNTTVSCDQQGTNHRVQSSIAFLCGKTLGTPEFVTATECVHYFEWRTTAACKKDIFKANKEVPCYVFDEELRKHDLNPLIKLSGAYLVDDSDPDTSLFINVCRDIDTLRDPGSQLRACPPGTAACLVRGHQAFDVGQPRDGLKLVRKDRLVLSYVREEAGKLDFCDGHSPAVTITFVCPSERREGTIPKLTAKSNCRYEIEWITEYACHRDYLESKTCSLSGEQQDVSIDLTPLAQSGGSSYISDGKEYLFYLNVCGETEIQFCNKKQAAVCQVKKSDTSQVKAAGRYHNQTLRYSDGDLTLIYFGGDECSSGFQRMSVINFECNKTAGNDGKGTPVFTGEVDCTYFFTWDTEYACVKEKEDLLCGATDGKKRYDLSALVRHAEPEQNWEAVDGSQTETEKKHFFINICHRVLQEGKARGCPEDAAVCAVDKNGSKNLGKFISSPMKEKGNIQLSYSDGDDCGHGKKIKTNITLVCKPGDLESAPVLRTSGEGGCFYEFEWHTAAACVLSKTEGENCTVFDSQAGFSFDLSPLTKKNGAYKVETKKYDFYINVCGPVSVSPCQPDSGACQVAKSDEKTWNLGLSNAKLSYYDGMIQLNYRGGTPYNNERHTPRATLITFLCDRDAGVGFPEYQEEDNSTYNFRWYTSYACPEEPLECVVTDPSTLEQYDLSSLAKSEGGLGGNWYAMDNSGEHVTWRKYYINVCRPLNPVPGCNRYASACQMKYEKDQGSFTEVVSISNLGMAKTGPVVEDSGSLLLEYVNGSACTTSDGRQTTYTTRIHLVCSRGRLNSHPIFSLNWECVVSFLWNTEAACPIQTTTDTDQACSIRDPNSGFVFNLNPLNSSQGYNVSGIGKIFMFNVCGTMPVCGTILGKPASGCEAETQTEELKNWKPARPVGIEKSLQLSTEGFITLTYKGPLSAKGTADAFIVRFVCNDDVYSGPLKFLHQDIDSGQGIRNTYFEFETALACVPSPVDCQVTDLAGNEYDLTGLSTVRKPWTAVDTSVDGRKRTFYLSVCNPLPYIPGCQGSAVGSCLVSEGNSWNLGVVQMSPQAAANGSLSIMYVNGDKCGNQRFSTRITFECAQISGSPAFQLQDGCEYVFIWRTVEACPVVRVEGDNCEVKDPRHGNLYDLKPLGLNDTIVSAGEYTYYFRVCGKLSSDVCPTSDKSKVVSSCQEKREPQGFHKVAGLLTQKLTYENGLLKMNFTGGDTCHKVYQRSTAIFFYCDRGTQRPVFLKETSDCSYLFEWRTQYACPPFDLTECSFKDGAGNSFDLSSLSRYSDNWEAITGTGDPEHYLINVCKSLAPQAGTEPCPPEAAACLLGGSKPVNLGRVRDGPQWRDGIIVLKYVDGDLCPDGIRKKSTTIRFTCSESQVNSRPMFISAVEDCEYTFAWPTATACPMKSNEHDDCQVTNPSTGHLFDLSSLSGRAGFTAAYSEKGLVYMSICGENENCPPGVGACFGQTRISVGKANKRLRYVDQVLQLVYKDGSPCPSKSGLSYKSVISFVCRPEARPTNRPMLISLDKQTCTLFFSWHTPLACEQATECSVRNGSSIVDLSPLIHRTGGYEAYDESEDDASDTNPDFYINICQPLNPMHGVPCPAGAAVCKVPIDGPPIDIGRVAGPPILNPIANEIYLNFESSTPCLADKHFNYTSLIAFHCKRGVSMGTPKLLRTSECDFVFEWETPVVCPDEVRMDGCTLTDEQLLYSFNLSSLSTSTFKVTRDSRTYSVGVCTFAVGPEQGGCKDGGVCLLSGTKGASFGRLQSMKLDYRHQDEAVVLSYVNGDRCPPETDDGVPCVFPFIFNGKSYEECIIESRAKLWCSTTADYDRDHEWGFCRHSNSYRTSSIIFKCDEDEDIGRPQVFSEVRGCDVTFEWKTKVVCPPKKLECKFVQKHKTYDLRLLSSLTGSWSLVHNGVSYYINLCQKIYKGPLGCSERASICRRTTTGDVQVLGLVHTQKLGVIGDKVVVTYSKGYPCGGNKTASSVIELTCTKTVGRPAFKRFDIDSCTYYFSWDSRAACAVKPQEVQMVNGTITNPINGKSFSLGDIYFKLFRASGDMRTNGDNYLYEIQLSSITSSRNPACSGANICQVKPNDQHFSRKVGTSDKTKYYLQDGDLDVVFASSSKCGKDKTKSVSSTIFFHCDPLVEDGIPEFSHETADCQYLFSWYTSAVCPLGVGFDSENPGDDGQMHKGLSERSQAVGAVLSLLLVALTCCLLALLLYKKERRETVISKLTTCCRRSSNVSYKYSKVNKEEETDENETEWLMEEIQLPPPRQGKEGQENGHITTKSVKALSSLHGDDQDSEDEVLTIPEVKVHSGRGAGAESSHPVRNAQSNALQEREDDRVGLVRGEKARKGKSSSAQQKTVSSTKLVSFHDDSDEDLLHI

O=C(COP(=O)(O)O)[C@@H](O)[C@H](O)[C@H](O)CO [F1P, fructose-1-phosphate]
effect on wound healing (histological analysis) ([1]; 7 days post wounding): neither F1P or Malt1P had any effect on wound healing | immunocytochemical analysis (fibronectin staining, monocyte/macrophage profiles) [1, 3]: treated wounds resembled controls | histological analysis ([1]; 10, 20, 40 mM): inconsistent, with no clear trend | scarring / dermal architecture (histology) [1, 4]: reduce scarring more significantly

O=C[C@H](O)[C@@H](O)[C@@H](O)[C@H](O)COP(=O)(O)O [Galactose-6-phosphate]
effect on wound healing (wounds): no effect | effect on scarring (wounds): no effect

O=C[C@@H](O)[C@@H](O)[C@H](O)[C@H](O)COP(=O)(O)O [M6P, mannose-6-phosphate]
histological analysis of treated wounds vs PBS controls ([1]; 7 days post wounding, 10 or 20 mM, or 10 mM + 10 mM M6P, at wounding and each day for following two days): none of the treated wounds appeared different to PBS controls | scarring / dermal architecture (histology) ([1]; 10 or 20 mM, or 10 mM + 10 mM M6P, at wounding and each day for following two days, vs controls): improvement in scarring

O=P(O)(O)O[C@H]1O[C@H](CO)[C@@H](O[C@H]2O[C@H](CO)[C@@H](O)[C@H](O)[C@H]2O)[C@H](O)[C@H]1O [Malt1P, maltose-1-phosphate]
binding to the M6P/IGF II receptor [2]: does not bind | effect on wound healing (histological analysis) ([1]; 7 days post wounding): neither F1P or Malt1P had any effect on wound healing | immunocytochemical analysis (fibronectin staining, monocyte/macrophage profiles) [1, 3]: treated wounds resembled controls | histological analysis ([1]; 10, 20, 40 mM): inconsistent, with no clear trend | scarring / dermal architecture (histology) [1, 4]: improve the dermal architecture very slightly

O=P(O)(O)OCC(O)CO (stereo not drawn) [glycerol-3-phosphate]
effect on wound healing (wounds): no effect | effect on scarring (wounds): no effect
